The text below walks through data of patent US20250333383A1, “N-OXIDE COMPOUNDS AND USE THEREOF” (SK BIOPHARMACEUTICALS CO., LTD., priority 2022, published 2025).

The first assay deals with T1, human Nav1.7 channels (Homo sapiens, UniProt Q15858).
T1 construct: host or cells: HEK293
T1 sequence (Q15858 whole entry): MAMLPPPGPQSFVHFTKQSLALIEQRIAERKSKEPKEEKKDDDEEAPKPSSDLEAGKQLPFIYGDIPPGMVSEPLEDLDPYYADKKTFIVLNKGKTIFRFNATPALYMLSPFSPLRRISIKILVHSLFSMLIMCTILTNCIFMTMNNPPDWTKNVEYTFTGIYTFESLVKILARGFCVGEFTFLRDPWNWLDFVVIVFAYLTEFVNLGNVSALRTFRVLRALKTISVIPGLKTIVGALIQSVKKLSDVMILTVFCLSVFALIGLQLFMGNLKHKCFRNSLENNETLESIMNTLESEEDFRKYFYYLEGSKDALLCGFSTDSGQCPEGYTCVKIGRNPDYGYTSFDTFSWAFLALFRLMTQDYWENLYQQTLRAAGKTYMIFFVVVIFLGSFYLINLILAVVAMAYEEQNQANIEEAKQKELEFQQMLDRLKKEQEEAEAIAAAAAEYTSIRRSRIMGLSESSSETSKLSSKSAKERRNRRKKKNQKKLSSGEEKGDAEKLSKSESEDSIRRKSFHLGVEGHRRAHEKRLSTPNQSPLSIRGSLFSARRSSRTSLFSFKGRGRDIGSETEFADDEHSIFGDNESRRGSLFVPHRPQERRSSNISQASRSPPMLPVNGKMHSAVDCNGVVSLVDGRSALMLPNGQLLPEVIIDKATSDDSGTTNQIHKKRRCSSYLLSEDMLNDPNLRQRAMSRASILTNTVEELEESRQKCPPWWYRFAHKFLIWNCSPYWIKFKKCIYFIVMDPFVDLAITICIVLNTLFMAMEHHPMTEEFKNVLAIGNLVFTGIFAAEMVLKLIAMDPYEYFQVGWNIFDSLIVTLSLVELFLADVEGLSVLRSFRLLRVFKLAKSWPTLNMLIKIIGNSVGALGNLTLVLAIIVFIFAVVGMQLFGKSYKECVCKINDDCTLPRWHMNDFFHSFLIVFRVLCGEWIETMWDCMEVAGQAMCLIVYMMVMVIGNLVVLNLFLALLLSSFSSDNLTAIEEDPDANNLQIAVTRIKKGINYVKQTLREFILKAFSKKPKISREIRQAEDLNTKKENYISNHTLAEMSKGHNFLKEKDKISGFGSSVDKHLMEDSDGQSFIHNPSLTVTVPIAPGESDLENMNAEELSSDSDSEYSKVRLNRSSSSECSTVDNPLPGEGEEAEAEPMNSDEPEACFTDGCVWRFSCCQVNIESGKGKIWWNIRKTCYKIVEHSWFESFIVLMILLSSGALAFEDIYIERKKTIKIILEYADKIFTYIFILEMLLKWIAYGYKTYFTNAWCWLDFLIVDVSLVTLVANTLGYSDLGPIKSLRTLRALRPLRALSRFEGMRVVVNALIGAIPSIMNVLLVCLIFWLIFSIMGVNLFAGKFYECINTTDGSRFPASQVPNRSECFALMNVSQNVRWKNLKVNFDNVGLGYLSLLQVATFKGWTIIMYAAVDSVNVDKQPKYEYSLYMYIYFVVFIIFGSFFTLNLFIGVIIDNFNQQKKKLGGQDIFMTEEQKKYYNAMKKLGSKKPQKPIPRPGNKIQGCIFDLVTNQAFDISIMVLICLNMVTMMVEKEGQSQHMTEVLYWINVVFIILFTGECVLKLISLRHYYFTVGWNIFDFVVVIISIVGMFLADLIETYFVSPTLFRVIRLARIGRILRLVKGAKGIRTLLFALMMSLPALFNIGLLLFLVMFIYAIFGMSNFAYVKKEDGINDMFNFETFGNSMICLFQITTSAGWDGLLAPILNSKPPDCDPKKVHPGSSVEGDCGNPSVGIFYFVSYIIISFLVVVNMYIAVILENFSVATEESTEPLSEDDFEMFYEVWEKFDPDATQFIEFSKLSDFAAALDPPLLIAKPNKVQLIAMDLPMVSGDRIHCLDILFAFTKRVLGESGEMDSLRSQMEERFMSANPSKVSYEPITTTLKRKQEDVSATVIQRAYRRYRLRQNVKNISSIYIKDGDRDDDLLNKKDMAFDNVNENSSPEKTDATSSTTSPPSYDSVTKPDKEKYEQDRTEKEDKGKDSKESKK
Briefly: hNav1.7 channel assay, whole cell patch clamp, two-pulse protocol. In kind it is cell-based. The note with it: TP2 (inactivated phase inhibition), HEK293 cells stably expressing human Nav1.7, read-out: Inhibition activity: percent inhibition on the inactivated state of hNav1.7. From the text: Whole cell patch clamp technique was used to investigate the inhibitory effects of the compound of Examples on human Nav1.7 channels, stably expressed in HEK293 cells. Human Nav1.7 recombinant cell line (CYL3011-precisION) was purchased from Eurofins.
Two-pulse protocol was used every 10 seconds to assess the state-dependent inhibition by Examples. From the holding potential of −90 mV, pre-pulse (200 ms at −120 mV) was followed by test pulse1 ([…]), then test pulse2 (TP2: 20 ms at 0 mV) was evoked after inter-pulse (20 ms at −100 mV).
Peak current amplitudes were measured for test pulses TP1 (resting phase inhibition) and TP2 (inactivated phase inhibition). The following solutions were used for screening assay: External (mM): 145 NaCl, 1 MgCl2, 1.8 CaCl2, 10 Hepes, 5 Glucose, pH 7.4, 300 mOsm; Internal (mM): 120 CsF, 10 NaCl, 10 EGTA, 10 HEPES, pH 7.2, 290 mOsm.
The inhibition on the inactivated state of hNav1.7 was calculated as: % inhibition (inactivation state)=(1−(ITP2, TA/ITP2, Control)×100%, where ITP2 (the inward peak Na+ currents), Control and ITP2, TA were elicited by the TP2 in control (vehicle only) and in the presence of a test article (TA) indicating Examples, respectively.
By inhibition is commonly meant the percentage by which the read-out fell short of the control. On to `O=C(NCc1cccc[n+]1[O-])c1cc(-c2ccc(Cl)cc2)ccc1F` [Example 51, 5-(4-chlorophenyl)-2-fluoro-N-[(1-oxidopyridin-1-ium-2-yl)methyl]benzamide], for which the inhibition at 10 µM fell in the range of 70 to 100%. In the case of `Cc1cc(-c2cccc(C(=O)NCc3cccc[n+]3[O-])c2)ccc1F` [Example 22, 3-(4-fluoro-3-methyl-phenyl)-N-[(1-oxidopyridin-1-ium-2-yl)methyl]benzamide], the inhibition at 10 µM lay within 40 to 70%.

As to `O=C(NCc1cccc[n+]1[O-])c1cccc(-c2ccc(OC(F)(F)F)cc2)c1` [Example 3, N-[(1-oxidopyridin-1-ium-2-yl)methyl]-3-[4-(trifluoromethoxy)phenyl]benzamide], the inhibition at 10 µM was in the range of 70 to 100%. Take `COc1ccccc1-c1cccc(C(=O)NCc2cccc[n+]2[O-])c1` [Example 40, 3-(2-methoxyphenyl)-N-[(1-oxidopyridin-1-ium-2-yl)methyl]benzamide]: the inhibition at 10 µM fell in the range of 70 to 100%.

Consider `Cc1cc(-c2cccc(C(=O)NCc3cccc[n+]3[O-])c2)ccc1C(F)(F)F` [Example 43, 3-[3-methyl-4-(trifluoromethyl)phenyl]-N-[(1-oxidopyridin-1-ium-2-yl)methyl]benzamide], for which the inhibition at 10 µM fell in the range of 70 to 100%. As to `COc1ccc(-c2cccc(C(=O)NCc3cccc[n+]3[O-])c2)c(C(F)(F)F)c1` [Example 50, 3-[4-methoxy-2-(trifluoromethyl)phenyl]-N-[(1-oxidopyridin-1-ium-2-yl)methyl]benzamide], the inhibition at 10 µM was 40 to 70%. In the case of `O=C(NCc1cccc[n+]1[O-])c1cccc(-c2ccccc2Cl)c1` [Example 20, 3-(2-chlorophenyl)-N-[(1-oxidopyridin-1-ium-2-yl)methyl]benzamide], the inhibition at 10 µM lay in the range of 40 to 70%. For `O=C(NCc1cccc[n+]1[O-])c1cc(-c2ccc(C(F)(F)F)cc2)ccc1F` [Example 57, 2-fluoro-N-[(1-oxidopyridin-1-ium-2-yl)methyl]-5-[4-(trifluoromethyl)phenyl]benzamide], the inhibition at 10 µM is 70 to 100%. Same read-out and setting: the figure for `O=C(NCc1cccc[n+]1[O-])c1cc(-c2ccc(F)c(F)c2)ccc1F` [Example 54, 5-(3,4-difluorophenyl)-2-fluoro-N-[(1-oxidopyridin-1-ium-2-yl)methyl]benzamide] is 70 to 100%; for `O=C(NCc1cccc[n+]1[O-])c1cccc(-c2ccc(Cl)c(Cl)c2)c1` [Example 6, 3-(3,4-dichlorophenyl)-N-[(1-oxidopyridin-1-ium-2-yl)methyl]benzamide] it is 70 to 100%; for `O=C(NCc1cccc[n+]1[O-])c1cccc(-c2cccc(C(F)(F)F)c2)c1` [Example 5, N-[(1-oxidopyridin-1-ium-2-yl)methyl]-3-[3-(trifluoromethyl)phenyl]benzamide] it is 40 to 70%. On to `O=C(NCc1cccc[n+]1[O-])c1cc(-c2ccc(C(F)(F)F)c(F)c2)ccc1F` [Example 60, 2-fluoro-5-[3-fluoro-4-(trifluoromethyl)phenyl]-N-[(1-oxidopyridin-1-ium-2-yl)methyl]benzamide], for which the inhibition at 10 µM lay within 70 to 100%. The same measure, in the same setting: the figure for `COc1cc(-c2cccc(C(=O)NCc3cccc[n+]3[O-])c2)cc(C(F)(F)F)c1` [Example 45, 3-[3-methoxy-5-(trifluoromethyl)phenyl]-N-[(1-oxidopyridin-1-ium-2-yl)methyl]benzamide] is 10 to 40%.

In the case of `O=C(NCc1cccc[n+]1[O-])c1cc(-c2ccc(Cl)cc2)ccc1Cl` [Example 62, 2-chloro-5-(4-chlorophenyl)-N-[(1-oxidopyridin-1-ium-2-yl)methyl]benzamide], the inhibition at 10 µM was in the range of 70 to 100%. In the case of `CC(C)c1cccc(-c2cccc(C(=O)NCc3cccc[n+]3[O-])c2)c1` [Example 35, 3-(3-isopropylphenyl)-N-[(1-oxidopyridin-1-ium-2-yl)methyl]benzamide], the inhibition at 10 µM fell in the range of 70 to 100%.

For the compound `O=C(NCc1cccc[n+]1[O-])c1cccc(-c2ccc(F)c(C(F)(F)F)c2)c1` [Example 39, 3-[4-fluoro-3-(trifluoromethyl)phenyl]-N-[(1-oxidopyridin-1-ium-2-yl)methyl]benzamide], the inhibition at 10 µM lay in the range of 70 to 100%. On to `COc1cc(-c2ccc(F)c(C(=O)NCc3cccc[n+]3[O-])c2)ccc1C(F)(F)F` [Example 59, 2-fluoro-5-[3-methoxy-4-(trifluoromethyl)phenyl]-N-[(1-oxidopyridin-1-ium-2-yl)methyl]benzamide], for which the inhibition at 10 µM lay in the range of 70 to 100%. Still for that read-out and setting: to `O=C(NCc1cccc[n+]1[O-])c1cccc(-c2ccc(C(F)(F)F)c(F)c2)c1` [Example 42, 3-[3-fluoro-4-(trifluoromethyl)phenyl]-N-[(1-oxidopyridin-1-ium-2-yl)methyl]benzamide] belongs 40 to 70%. Regarding `O=C(NCc1cccc[n+]1[O-])c1cccc(-c2ccc(Cl)c(F)c2)c1` [Example 30, 3-(4-chloro-3-fluoro-phenyl)-N-[(1-oxidopyridin-1-ium-2-yl)methyl]benzamide], the inhibition at 10 µM fell in the range of 40 to 70%. Take `CC(C)(C)c1ccc(-c2cccc(C(=O)NCc3cccc[n+]3[O-])c2)cc1` [Example 13, 3-(4-tert-butylphenyl)-N-[(1-oxidopyridin-1-ium-2-yl)methyl]benzamide]: the inhibition at 10 µM is 40 to 70%.

In the case of `O=C(NCc1cccc[n+]1[O-])c1cccc(-c2cc(F)c(F)c(F)c2)c1` [Example 33, N-[(1-oxidopyridin-1-ium-2-yl)methyl]-3-(3,4,5-trifluorophenyl)benzamide], the inhibition at 10 µM is 10 to 40%. The same measure, in the same setting: to `Cc1cc(Cl)ccc1-c1cccc(C(=O)NCc2cccc[n+]2[O-])c1` [Example 15, 3-(4-chloro-2-methyl-phenyl)-N-[(1-oxidopyridin-1-ium-2-yl)methyl]benzamide] belongs 40 to 70%. For `O=C(NCc1cccc[n+]1[O-])c1cc(-c2cccc(Cl)c2)ccc1F` [Example 52, 5-(3-chlorophenyl)-2-fluoro-N-[(1-oxidopyridin-1-ium-2-yl)methyl]benzamide], the inhibition at 10 µM is 70 to 100%. Regarding `O=C(NCc1cccc[n+]1[O-])c1cccc(-c2cccc(OC(F)(F)F)c2)c1` [Example 8, N-[(1-oxidopyridin-1-ium-2-yl)methyl]-3-[3-(trifluoromethoxy)phenyl]benzamide], the inhibition at 10 µM lay in the range of 40 to 70%. With `COc1cc(-c2cccc(C(=O)NCc3cccc[n+]3[O-])c2)ccc1Cl` [Example 48, 3-(4-chloro-3-methoxy-phenyl)-N-[(1-oxidopyridin-1-ium-2-yl)methyl]benzamide], the inhibition at 10 µM fell in the range of 40 to 70%. With `COc1cc(-c2cccc(C(=O)NCc3cccc[n+]3[O-])c2)ccc1C(F)(F)F` [Example 49, 3-[3-methoxy-4-(trifluoromethyl)phenyl]-N-[(1-oxidopyridin-1-ium-2-yl)methyl]benzamide], the inhibition at 10 µM fell in the range of 70 to 100%. Consider `O=C(NCc1cccc[n+]1[O-])c1cccc(-c2ccc(C(F)(F)F)cc2)c1` [Example 1, N-[(1-oxidopyridin-1-ium-2-yl)methyl]-3-[4-(trifluoromethyl)phenyl]benzamide], for which the inhibition at 10 µM was in the range of 70 to 100%.

The next assay concerns Rat Spinal Nerve Ligation Model. Briefly: Rat Spinal Nerve Ligation (SNL, Chung) model, mechanical allodynia by von Frey filaments. The class given is in vivo. Conditions: 30 mg/kg, p.o., PWT two hours after the treatment. The procedure: Rat Spinal Nerve Ligation Model
Analgesic efficacy was examined through the Spinal Nerve Ligation (SNL) model, also known as the Chung model (Kim and Chung, 1992). SNL model is one of the most frequently used animal models for the assessment of neuropathic pain behavior.
Briefly, the lumbar 5 spinal nerve is ligated with silk suture distal to the dorsal root ganglion. After two weeks of recovery, mechanical allodynia in the affected paw of animals was evaluated using von Frey filaments. Using the Dixons Up-Down method (Chaplan et al, 1994), a pre-drug baseline was taken with allodynia defined as a paw withdrawal threshold (PWT)<4 g. Test compounds (at 30 mg/kg) or vehicle were then orally administered, and PWT was determined two hours after the treatment. Statistical mean values of PWT for vehicle control and drug treatment groups were calculated, and the percent of maximum possible effect (% MPE) value was determined according to the following formula; % MPE=[(post-drug PWT−pre-drug PWT)/(cutoff PWT−pre-drug PWT)]×100.
Turning to `O=C(NCc1cccc[n+]1[O-])c1cc(-c2ccc(Cl)cc2)ccc1F` [Example 51, 5-(4-chlorophenyl)-2-fluoro-N-[(1-oxidopyridin-1-ium-2-yl)methyl]benzamide], the “in vivo efficacy: % MPE” value is recorded as “+++ (+++: 70-100%)”. Turning to `Cc1cc(-c2cccc(C(=O)NCc3cccc[n+]3[O-])c2)ccc1F` [Example 22, 3-(4-fluoro-3-methyl-phenyl)-N-[(1-oxidopyridin-1-ium-2-yl)methyl]benzamide], the “in vivo efficacy: % MPE” value was “+ (+: 10-40%,)”. In the case of `O=C(NCc1cccc[n+]1[O-])c1cccc(-c2ccc(OC(F)(F)F)cc2)c1` [Example 3, N-[(1-oxidopyridin-1-ium-2-yl)methyl]-3-[4-(trifluoromethoxy)phenyl]benzamide], the “in vivo efficacy: % MPE” value was “++ (++: 40-70%,)”.
